ChEMBL document CHEMBL1126630, “Adenosine-5'-carboxaldehyde: a potent inhibitor of S-adenosyl-L-homocysteine hydrolase” (J Med Chem, 1993)

Legend:
[1] = target: T1, Adenosylhomocysteinase (Rattus norvegicus) (UniProt P10760)
T1 sequence (whole entry): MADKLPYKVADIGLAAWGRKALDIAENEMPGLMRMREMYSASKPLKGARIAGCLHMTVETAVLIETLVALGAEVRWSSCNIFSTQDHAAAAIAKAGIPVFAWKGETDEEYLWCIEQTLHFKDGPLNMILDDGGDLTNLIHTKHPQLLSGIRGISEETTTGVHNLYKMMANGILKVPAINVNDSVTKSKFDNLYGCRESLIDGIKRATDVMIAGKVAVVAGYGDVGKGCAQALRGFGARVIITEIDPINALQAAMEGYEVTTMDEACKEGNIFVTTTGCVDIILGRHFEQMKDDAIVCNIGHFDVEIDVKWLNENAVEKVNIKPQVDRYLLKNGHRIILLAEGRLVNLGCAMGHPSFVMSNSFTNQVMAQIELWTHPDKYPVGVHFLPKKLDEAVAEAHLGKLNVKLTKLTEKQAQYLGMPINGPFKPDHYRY
Description: Rate constant for recombinant rat liver S-adenosyl-homocysteine hydrolase inactivation

[2] = target: T2, Adenosylhomocysteinase (Rattus norvegicus, UniProt P10760); test: Inhibitory activity against recombinant rat liver S-adenosyl-homocysteine hydrolase
T2 sequence (P10760 whole entry): T1 sequence (whole entry)

Structure (SMILES)	k2 [1]	Ki [2]
Nc1ncnc2c1ncn2[C@@H]1O[C@@H](C=O)[C@@H](O)[C@H]1O	0.65 min⁻¹	39 nM
Nc1ncnc2c1ncn2[C@@H]1O[C@H](C=O)[C@@H](O)[C@H]1O	0.22 min⁻¹	43 nM
Nc1ncnc2c1ncn2[C@@H]1O/C(=C\F)[C@H](O)[C@@H]1O	0.082 min⁻¹	39 nM
Nc1ncnc2c1ncn2[C@@H]1O/C(=C/F)[C@H](O)[C@@H]1O	0.05 min⁻¹	40 nM
